Test results reported in US7732398B2, “Medicinal uses of mu-opioid receptor agonists” (Cornell Research Foundation, Inc., priority 2000, dated 2010).

Key:
[1] = system: [^3H]NE uptake in spinal cord synaptosomes; experiment: Inhibition of [3H]NE uptake in spinal cord synaptosomes; type: biochemical, guinea pig; conditions: for IC50: spinal cord synaptosomes, 95% confidence interval in brackets
Description: Adult female Hartley strain guinea pigs (440-550 g) were decapitated and the spinal cords taken out. A crude synaptosomal (P2) fraction was prepared as described previously (Lonart and Johnson 1995; Li 2000). Briefly, the tissue was minced and homogenized in 10 ml of ice-cold 0.32 M sucrose solution (pH7.4) with a Thomas B075 homogenizor, clearance 0.13-0.18 mm. The homogenate was centrifuged for 10 min at 1,200×g in a Megafuge centrifuge at 4° C. The resulting supernatant was then centrifuged at 20,000×g for 20 min in JA-17 rotor of a Beckman J2-21 centrifuge at 4° C. and the supernatant discarded. The pellet (P2) was gently resuspended in aerated (100% O2) ice-cold buffer containing (in mM):HEPES 20, NaCl 140, KCl 5, NaHCO3 5, MgCl2 1, Na2HPO4 1.2, CaCl2 1.2 and glucose 10, pH 7.4, and centrifuge at 3,000×g for 12 min in a Megafuge at 4° C. Pour out the supernatant. Gently resuspend synaptosome in 10 ml buffer with the aid of a Dounce homogenizor just before using. Protein concentration was determined by the method of Bradford (1976) at 595 nm using bovine serum albumin as a standard in a Spectra Max plus machine (Molecular Device Co. Sunnyvale, Calif.)
Add buffer 0.6 ml in tubes, synaptosome solution 0.2 ml (about 100 μg), then varying concentration of drug 0.1 ml (each concentration performed in triplicate), put in water bath for pre-incubation for 10 min at 37° C. The uptake was initiated by the addition of [^3H]NE (100 nM) or [^3H]5-HT (50 nM) 0.1 ml, continued to incubate for 6 min and terminated by a rapid cooling of sample tubes in ice-cold water for 3 min. The synaptosome were then collected using a Harvest machine with GF/B filter, washed for 3 times with ice-cold 150 mM Tris HCl buffer (pH7.4) 2 ml. After drying, put filter in scintillation liquid vials then add scintillation liquid 6 ml. Filter-bound radioactivity was counted by liquid scintillation counter (Beckman LS6001). The difference in [^3H]NE or [^3H]5-HT accumulation at 37° C. and 0° C. was taken as a measure of active uptake. […]

[2] = known value (Szeto et al., 1998); cited from earlier work
[3] = system: 5-HT uptake in spinal cord synaptosomes; experiment: Inhibition of [3H]5-HT uptake in spinal cord synaptosomes; type: biochemical, guinea pig; conditions: data not shown
Description: Adult female Hartley strain guinea pigs (440-550 g) were decapitated and the spinal cords taken out. A crude synaptosomal (P2) fraction was prepared as described previously (Lonart and Johnson 1995; Li 2000). Briefly, the tissue was minced and homogenized in 10 ml of ice-cold 0.32 M sucrose solution (pH7.4) with a Thomas B075 homogenizor, clearance 0.13-0.18 mm. The homogenate was centrifuged for 10 min at 1,200×g in a Megafuge centrifuge at 4° C. The resulting supernatant was then centrifuged at 20,000×g for 20 min in JA-17 rotor of a Beckman J2-21 centrifuge at 4° C. and the supernatant discarded. The pellet (P2) was gently resuspended in aerated (100% O2) ice-cold buffer containing (in mM):HEPES 20, NaCl 140, KCl 5, NaHCO3 5, MgCl2 1, Na2HPO4 1.2, CaCl2 1.2 and glucose 10, pH 7.4, and centrifuge at 3,000×g for 12 min in a Megafuge at 4° C. Pour out the supernatant. […] Protein concentration was determined by the method of Bradford (1976) at 595 nm using bovine serum albumin as a standard in a Spectra Max plus machine (Molecular Device Co. Sunnyvale, Calif.)
Add buffer 0.6 ml in tubes, synaptosome solution 0.2 ml (about 100 μg), then varying concentration of drug 0.1 ml (each concentration performed in triplicate), put in water bath for pre-incubation for 10 min at 37° C. […] Filter-bound radioactivity was counted by liquid scintillation counter (Beckman LS6001). […]

rats (F344 strain) = experiment: Myocardial stunning during myocardial ischemia and reperfusion in rats; type: in vivo, rat
Description: In the [Dmt^1]DALDA group, [Dmt^1]DALDA was administered as a 10 nmol bolus, followed by 10 nmol/h continuous infusion. […] The control group received the same volume of saline as a bolus and continuous infusion.
The left anterior descending artery was occluded by applying tension to the sling through a polyethylene 10 tubing and clamping. Successful occlusion was confirmed by typical electrocardiographic changes and wall motion abnormality on echocardiogram. After 10 min of myocardial ischemia, the sling was released to reperfuse the left anterior descending artery. Time to recovery of left ventricular function was defined as the duration from the reperfusion to recovery of fractional shortening above 90% of baseline. Duration of reperfusion arrhythmia was defined as the duration of time to the last three consecutive premature ventricular contractions (salvo) after reperfusion. All procedures were performed in a blinded manner, with the groups assigned letters and their identities unknown to the operators. Likewise, the two independent investigators analyzing the data were blind to the treatment assignments.
All procedures and care of animals were in accordance with guidelines approved by the Institution for the Care and Use of Animals at Weill Medical College of Cornell University. Following anesthesia with 0.2 mg of ketamine and 1 mg xylazine given intraperitoneally, tracheostomy with blunt dissection of the neck and intubation with polyethylene tubing 240 was performed. Mechanical ventilation was started with room air at 90 respirations per min. The internal jugular vein was surgically exposed and a polyethylene tubing was inserted for drug administration. Left thoracotomy was performed through fifth intercostal space to expose the heart. After removal of the pericardium, a 6.0 Nylon sling was placed around the proximal left anterior descending artery just below the level of the left atrial appendage, to be used for occlusion of the coronary artery. Continuous echocardiogram was obtained by inserting a 10 French intracardiac probe into the esophagus (Acuson-Sequoia C256) and a two-dimensional echocardiogram was recorded continuously, with 10 MHz echo signals throughout the procedure. Electrocardiographic monitoring from a standard lead II (AC AMP 700) was digitally recorded throughout the procedure.
M-mode recordings were obtained for the analysis of wall motion and left ventricular systolic function. Left ventricular end diastolic and end systolic dimensions were measured at the level of papillary muscle. Fractional shortening as a measure of the global left ventricular function was calculated as the difference between left ventricular end diastolic and end systolic dimensions divided by end diastolic dimension×100. Systolic wall thickening of the anterior wall in percent, as a measure of the ischemic regional wall motion, was calculated as the difference between left ventricular end diastolic and end systolic wall thickness divided by end diastolic wall thickness×100.
Echocardiographic and electrocardiographic data are presented as mean value±SD. ANOVA was used to compare among the groups. A p-value<0.05 was considered significant.

awake sheep = experiment: Blood pressure in sheep after intravenous administration; type: in vivo
Source text: Even a brief period of increased blood pressure may be a risk factor in patients with hypertension, compromised myocardial function (such as after a myocardial infarction) or patients who are at risk for strokes. The response is short-lasting because the receptor desensitizes rapidly. We can take advantage of this rapid desensitization and eliminate the blood pressure response by administering the drug as a slow intravenous infusion rather than as a rapid bolus injection.
[…] […] Thus the increase in blood pressure can be avoided by using a slow intravenous infusion of [Dmt^1]DALDA.

[4] = Five min. after reperfusion, listed as morphine

For `NCCCC[C@H](NC(=O)[C@H](Cc1ccccc1)NC(=O)[C@@H](CCCN=C(N)N)NC(=O)[C@@H](N)Cc1ccc(O)cc1)C(N)=O` [DALDA, H-Tyr-D-Arg-Phe-Lys-NH2], the IC50 [1] is given as 54 µM, the elimination half-life [2] is given as about 1.5 h and the “effect on 5-HT uptake” value [3] is given as “Neither DALDA nor [Dmt^1]DALDA had any effect”.

With `CN1CC[C@]23c4c5ccc(O)c4O[C@H]2[C@@H](O)C=C[C@H]3[C@H]1C5` [Morphine, morphine, reference compound] the Ejection fraction (rats (F344 strain); After ligation) was 31.3 ± 4.2%, the Fractional shortening (rats (F344 strain); After ligation) was 21.0 ± 3.9% and the Systolic wall thickening (rats (F344 strain); After ligation) was 7.8 ± 6.5%. The Ejection fraction (rats (F344 strain); Baseline) was 64.6 ± 6.0%, the Fractional shortening (rats (F344 strain); Baseline) was 46.5 ± 3.6% and the Systolic wall thickening (rats (F344 strain); Baseline) was 47.7 ± 4.5%. It also gave an Ejection fraction (rats (F344 strain); Five min. after reperfusion) of 39.5 ± 11.1%, a Fractional shortening (rats (F344 strain); Five min. after reperfusion) of 39.1 ± 6.4% and a Systolic wall thickening (rats (F344 strain); Five min. after reperfusion) of 33.7 ± 7.5%. The Fractional shortening (rats (F344 strain); [4]) was 39.1±6.4%, the Systolic wall thickening (rats (F344 strain); [4]) was 33.7±7.5% and the Fractional shortening (rats (F344 strain); Ten min. after reperfusion) was 45.3 ± 6.2%. The Systolic wall thickening (rats (F344 strain); Ten min. after reperfusion) was 42.2 ± 5.8%, the “Time to recovery of left ventricular function” value (rats (F344 strain); from reperfusion to fractional shortening above 90% of baseline, [Dmt1]DALDA 10 nmol + 10 nmol/h, morphine 100 nmol + 100 nmol/h iv) was 6.0 ± 2.5 min and the “duration of reperfusion arrhythmia” value (rats (F344 strain); time to last salvo after reperfusion) was 5.8 ± 3.9 min.

For `Cc1cc(O)cc(C)c1C[C@H](N)C(=O)N[C@H](CCCNC(=N)N)C(=O)N[C@@H](Cc1ccccc1)C(=O)N[C@@H](CCCCN)C(N)=O` [[Dmt^1]DALDA, 2′,6′-dimethyl-Tyr-D-Arg-Phe-Lys-NH2], the blood pressure (awake sheep; constant rate intravenous infusion 0.06-0.6 mg/kg/h for as long as 4 h) was “no significant change in blood pressure”, the blood pressure (awake sheep; intravenous bolus 0.003-0.009 mg/kg, awake sheep) was “transient increase in blood pressure” and the “potency relative to DALDA in increasing blood pressure” value (awake sheep; sheep, unpublished data) was 100 fold. The “inhibition of [3H]NE uptake” value ([1]; at a dose of 10^−4) was 80.6±1.5%, the IC50 [1] was 4.1 µM and the Ejection fraction (rats (F344 strain); After ligation) was 31.4 ± 5.6%. For the same molecule, the Fractional shortening (rats (F344 strain); After ligation) was 27.1 ± 4.0%, the Systolic wall thickening (rats (F344 strain); After ligation) was 7.6 ± 4.7% and the Ejection fraction (rats (F344 strain); Baseline) was 64 ± 9.2%. It also gave a Fractional shortening (rats (F344 strain); Baseline) of 47.8 ± 4.2%, a Systolic wall thickening (rats (F344 strain); Baseline) of 47.0 ± 6.1% and an Ejection fraction (rats (F344 strain); Five min. after reperfusion) of 48.9 ± 10.1%. It also gave a Fractional shortening (rats (F344 strain); Five min. after reperfusion) of 45.7±2.4%, a Systolic wall thickening (rats (F344 strain); Five min. after reperfusion) of 48.3±7.6% and a Fractional shortening (rats (F344 strain); Ten min. after reperfusion) of 44.0±3.8%. The Systolic wall thickening (rats (F344 strain); Ten min. after reperfusion) was 50.5±8.4%, the “effect on contractility during preischemic or postischemic periods” value (rats (F344 strain); review of continuous echocardiogram) was “no effects of [Dmt^1]DALDA on the contractility” and the “effect on 5-HT uptake” value [3] was “Neither DALDA nor [Dmt^1]DALDA had any effect”.
